Data reported in PMC11946194, “Rational Design, Synthesis, and Biological Evaluation of Novel Thiazole/Thiazolidinones Multitarget Anti-Human Immunodeficiency Virus Molecules” (Pharmaceuticals, 2025).
Like-named read-outs stand apart in the source and are kept apart here.

Key:
[1] = molecular target: T1, recombinant HIV-1 RT (Human immunodeficiency virus type 1 group M subtype B, UniProt P04585); assay: HIV-1 RT RDDP inhibitory activity (Roche colorimetric immunoassay kit); assay type: biochemical
T1 construct: recombinant HIV-1 RT; purchased Roche
Experimental: As described in our previous work, HIV-1 reverse transcriptase (RT) activity was measured using the Roche colorimetric immunoassay kit. DNA synthesis by RT was quantified after 2 h incubation at 37 °C. The reaction included PolyA:oligodT RNA template, recombinant HIV-1 RT, and various substrates, with biotin-DIG-labeled DNA detected via streptavidin-coated ELISA wells. Inhibitor activity was tested by pre-incubating RT with compounds before substrate addition. The absorbance at 405 nm was measured to calculate enzyme activity and IC50 values. […] The experiment was performed in triplicate. The data analysis for obtaining the IC50 values and standard deviation (SD)was performed using nonlinear regression analysis, specifically fitting the dose–response curves to a sigmoidal model (log(inhibitor) vs. response) using the software GraphPad Prism 10.

[2] = molecular target: T2, HIV-1 RT-associated RNase H (Human immunodeficiency virus type 1 group M subtype B, UniProt P04585); assay: RT RNase H polymerase-independent cleavage assay; assay type: biochemical
T2 construct: quantification of RNase H activity of reverse transcriptase (RT) enzyme
Experimental: The HIV-1 RT-associated RNase H activity was measured following the protocol cited by the detection and quantification of RNase H activity of reverse transcriptase (RT) enzyme with a hybrid substrate formed by a fluorescein labeled RNA annealed with Dabcyl DNA. In this assay the reaction mixture containing tris–HCl, pH 7.8, MgCl2, dithiothreitol (DTT), KCl, hybrid RNA/DNA (5′-[…]-3′-fluorescein,5′-[…]-3′-Dabcyl), and RT were incubated for 1 h at 37 °C, the reaction was stopped by the addition of EDTA, and products were measured with a Victor 3 (Perkin PerkinElmer VICTOR X3 Multilabel Counter Microplate Reader, Cridersville, OH, USA ) at 490/528 nm. The experiment was performed in triplicate. IC50 values were determined through nonlinear regression analysis, where the dose–response curves were fitted to a sigmoidal model (log(inhibitor) vs. response) using GraphPad Prism 10 software.

[3] = Cellular viability, CCK cell viability assay; assay type: cell-based; conditions: human, MRC-5 cells (normal fetal lung fibroblasts)
Experimental: For the evaluation of cytotoxicity, compounds 1–15 were tested in the human normal fetal lung fibroblast MRC-5 cell line using the CCK cell viability assay. Each substance was tested at three different concentrations: 0.1 μM, 1 μM, and 10 μM. […] However, since all viability percentages were above 50%, no CC50 value could be calculated.
The normal human fetal lung fibroblast MRC-5 cell line (SI , 7)was cultured under standard conditions. Compounds were tested at 10 μM, 1 μM, and 0.1 μM. Results are expressed as mean ± standard deviation (SD) from triplicate experiments.
The previously established human normal MRC‐5 (human fetal lung fibroblasts; RRID:CVCL_0440)
approved for vaccine production was obtained, stored and used in a routine manner (1,2) in the
Laboratory of Pharmacology, School of Pharmacy, Aristotle University of Thessaloniki, Greece
(Laboratory of Ioannis S. Vizirianakis, Associate Professor in Molecular Pharmacology and
Pharmacogenomics) (<25 passages was applied). […]
Cell line MRC-5 information
ID/Proper Citation: (RRID:CVCL_0440)
URL: https://web.expasy.org/cellosaurus/CVCL_0440

[4] = molecular target: T2, HIV-1 RT-associated RNase H; design: method as in PMID 25092689; conditions: cited from earlier work
[5] = test system: HIV-1; conditions: cited from earlier work

Structure (SMILES) | IC50 [1] [µM] | inhibition at 4 µM [1] [%] | IC50 [2] [µM] | viability at 24 h, 10 µM [3] [%] | IC50 ([4]; reference inhibitor) [µM] | Inhibition of RNase H activity ([4]; selective) | Inhibition of viral replication [5]
O=C1CSC(c2c(F)cccc2F)N1c1nc(-c2ccc(F)cc2)cs1 (stereo not shown) [Compound 12, 2-(2,6-Difluorophenyl)-3-(4-(4-fluorophenyl)thiazol-2-yl)thiazolidin-4-one] | > 4 | 5.86 | > 50 | > 50 | – | – | –
CCOC(=O)C(=O)CC(=O)/C=C/c1cccn1Cc1ccccc1Cl [RDS1759] | – | – | – | – | 7.3 ± 0.1 | low micromolar range | low micromolar range
O=C1CSC(c2c(F)cccc2F)N1c1nc2cc(-c3ccccc3)c(-c3ccccc3)cc2s1 (stereo not shown) [Compound 14, 2-(2,6-Difluorophenyl)-3-(5,6-diphenylbenzo[d]thiazol-2-yl)thiazolidin-4-one] | > 4 | 7.9 | > 50 | > 50 | – | – | –
N#Cc1ccc2nc(N3C(=O)CSC3c3c(F)cccc3F)sc2c1 (stereo not shown) [Compound 13, 2-(2-(2,6-Difluorophenyl)-4-oxothiazolidin-3-yl)benzo[d]thiazole-6-carbonitrile] | > 4 | 21.4 | 16.4 ± 1.7 | 55 | – | – | –
O=C1CSC(c2c(F)cccc2F)N1c1nc(-c2cccc(S(=O)(=O)N3CCCC3)c2)cs1 (stereo not shown) [Compound 3, 2-(2,6-Difluorophenyl)-3-(4-(3-(pyrrolidin-1-ylsulfonyl)phenyl)thiazol-2-yl)thiazolidin-4-one] | > 4 | 24.3 | > 50 | > 50 | – | – | –
O=C1CSC(c2ccc(F)cc2)N1c1nc(-c2cccc(S(=O)(=O)N3CCCC3)c2)cs1 (stereo not shown) [Compound 2, 2-(4-Fluorophenyl)-3-(4-(3-(pyrrolidin-1-ylsulfonyl)phenyl)thiazol-2-yl)thiazolidin-4-one] | > 4 | 8.36 | > 50 | > 50 | – | – | –
O=C1CSC(c2ccccc2O)N1c1nc(-c2cccc(S(=O)(=O)N3CCCC3)c2)cs1 (stereo not shown) [Compound 5, 2-(2-Hydroxyphenyl)-3-(4-(3-(pyrrolidin-1-ylsulfonyl)phenyl)thiazol-2-yl)thiazolidin-4-one] | > 4 | 45.2 | 18 ± 2.1 | > 50 | – | – | –
O=C1CSC(c2c(Cl)cccc2Cl)N1c1nc(-c2ccc(F)cc2)cs1 (stereo not shown) [Compound 10, 2-(2,6-Dichlorophenyl)-3-(4-(4-fluorophenyl)thiazol-2-yl)thiazolidin-4-one] | > 4 | 1.59 | > 50 | > 50 | – | – | –
Cc1ccnc2c1NC(=O)c1cccnc1N2C1CC1 [Nevirapine, reference compound] | – | 93.8 | – | – | – | – | –
COc1ccc(OC)c(C2SCC(=O)N2c2nc(-c3ccc(S(=O)(=O)N4CCOCC4)cc3)cs2)c1 (stereo not shown) [Compound 6, 2-(2,5-Dimethoxyphenyl)-3-(4-(4-(morpholinosulfonyl)phenyl)thiazol-2-yl)thiazolidin-4-one] | 0.72 ± 0.06 | 81.3 | 2.5 ± 0.3 | > 50 | – | – | –
O=C1CSC(c2ccc(F)cc2)N1c1nc(-c2ccc(S(=O)(=O)N3CCOCC3)cc2)cs1 (stereo not shown) [Compound 7, 2-(4-Fluorophenyl)-3-(4-(4-(morpholinosulfonyl)phenyl)thiazol-2-yl)thiazolidin-4-one] | > 4 | 12 | > 50 | > 50 | – | – | –
O=C1CSC(c2ccc(F)cc2)N1c1cccc(S(=O)(=O)Nc2nccs2)c1 (stereo not shown) [Compound 1, 3-(2-(4-Fluorophenyl)-4-oxothiazolidin-3-yl)-N-(thiazol-2-yl)benzenesulfonamide] | 2.23 ± 0.15 | 68.3 | 14.3 ± 1.3 | > 50 | – | – | –
O=C1CSC(c2c(F)cccc2Cl)N1c1nc2ccc(C(F)(F)F)cc2s1 (stereo not shown) [Compound 11, 2-(2-Chloro-6-fluorophenyl)-3-(6-(trifluoromethyl)benzo[d]thiazol-2-yl)thiazolidin-4-one] | 0.32 ± 0.03 | 92.4 | 25.4 ± 0.4 | > 50 | – | – | –
O=C1CSC(c2c(Cl)cccc2Cl)N1c1nc(-c2ccc(S(=O)(=O)N3CCOCC3)cc2)cs1 (stereo not shown) [Compound 9, 2-(2,6-Dichlorophenyl)-3-(4-(4-(morpholinosulfonyl)phenyl)thiazol-2-yl)thiazolidin-4-one] | > 4 | 2.48 | 9.01 ± 0.1 | > 50 | – | – | –
COc1ccc(OC)c(C2SCC(=O)N2c2nc(-c3cccc(S(=O)(=O)N4CCCC4)c3)cs2)c1 (stereo not shown) [Compound 4, 2-(2,5-Dimethoxyphenyl)-3-(4-(3-(pyrrolidin-1-ylsulfonyl)phenyl)thiazol-2-yl)thiazolidin-4-one] | 0.58 ± 0.07 | 86.6 | 1.47 ± 0.2 | > 50 | – | – | –
O=C1CSC(c2c(Cl)cccc2Cl)N1c1nc2ccc(C(F)(F)F)cc2s1 (stereo not shown) [Compound 15, 2-(2,6-Dichlorophenyl)-3-(6-(trifluoromethyl)benzo[d]thiazol-2-yl)thiazolidin-4-one] | > 4 | 8.52 | > 50 | 57.9 | – | – | –
O=C1CSC(c2c(F)cccc2F)N1c1nc(-c2ccc(S(=O)(=O)N3CCOCC3)cc2)cs1 (stereo not shown) [Compound 8, 2-(2,6-Difluorophenyl)-3-(4-(4-(morpholinosulfonyl)phenyl)thiazol-2-yl)thiazolidin-4-one] | > 4 | 33 | > 50 | > 50 | – | – | –
